Experimental data taken from patent US20250122171A1, “Substituted Amine Compounds, Compositions and Methods of Use” (Deep Apple Therapeutics, Inc., priority 2023, published 2025).

Columns and labels:
Assay type in all cases: cell-based
LAD-2 cells [1] = assay: LAD2 Degranulation Assay (Protocol 1), β-hexosaminidase release; conditions: Homo sapiens, 1 μM Cortistatin-14, 30 minute preincubation, top concentration 3 μM
Method: (§1) LAD-2 cells were maintained at 37° C. with 5% CO2 and grown in complete StemPro-34 media supplemented with 1% L-Glutamate, 1% penicillin/streptomycin, and 250 ng/mL human SCF.
On the day of experiment, cells were collected by centrifugation and seeded in 384-well assay plates, at 4,000 cells per well in 10 μl freshly made assay buffer (10 mM HEPES, 130 mM NaCl, 5 mM KCl, 1.8 mM CaCl2), 1.0 mM MgCl2, 5.6 mM glucose, 0.1% BSA, pH=7.40). For dose-response assays, compounds solubilized in 100% DMSO at 30 mM were serially diluted (1:3) first in 100% DMSO, and 2 intermediate dilutions with assay buffer were used to establish a final top concentration of 3 μM (in assay plate). Final DMSO concentration was kept constant at 0.1% across plates for all assays. Cortistatin-14 at 30 mM stock concentration was solubilized in HBSS+0.1% BSA, stored at −20° C. in 5 μl aliquots and discarded after one freeze-thaw cycle. Final concentration of agonist used in both dose-response and single point assays was 1 μM, prepared in assay buffer.
(§2) Antagonist equilibrium was established with 30 minute preincubation, followed by no wash, direct addition, and stimulation of agonist for 30 minutes at 37° C. For detection of β-hexosaminidase activity, assay plates were centrifuged and 5 μl of cell-free supernatant from each assay well was transferred to a black-walled black-bottomed 384-well plate. Substrate solution (1 mM 4-Methylumbelliferyl N-acetyl-β-D-glucosaminide in citrate buffer, pH=4.5, 15 μl) was added to each well and plates were incubated for 1 hour at 37° C. The plate was read on an EnVision XCite plate reader for umbelliferone fluorescence intensity (λex=355 nm, λem=460 nm). Background-subtracted data was analyzed using either GraphPad Prism or a custom Python script to calculate IC50 using either Log[Antagonist] vs. response (4 parameter) nonlinear regression (dose-response assays).

human MRGPRX2 = molecular target: T1, human MRGPRX2 (Homo sapiens, UniProt Q96LB1); assay: MRGPRX2 Activity Assay (IP-1 HTRF, antagonist mode); conditions: FlpIn TRex-MRGPRX2-HEK293 cells; versus 1 μM Cortistatin-14 agonist; 30 minutes preincubation
T1 construct: expressed in transfected cells; host or cells: FlpIn TRex HEK293 (TRex-MRGPRX2-HEK), doxycycline-induced
T1 sequence (Q96LB1 1-330): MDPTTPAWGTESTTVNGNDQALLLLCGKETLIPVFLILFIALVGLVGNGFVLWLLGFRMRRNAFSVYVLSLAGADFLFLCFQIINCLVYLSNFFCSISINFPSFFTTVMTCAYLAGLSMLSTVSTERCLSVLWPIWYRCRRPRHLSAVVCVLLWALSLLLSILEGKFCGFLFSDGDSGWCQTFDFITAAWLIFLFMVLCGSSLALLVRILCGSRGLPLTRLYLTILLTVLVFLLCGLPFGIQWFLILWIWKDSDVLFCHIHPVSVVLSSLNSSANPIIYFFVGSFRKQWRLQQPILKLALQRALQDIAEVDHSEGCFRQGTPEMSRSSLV
Method in brief: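 Doxycycline-induced (100 ng/mL, 18-24 h) TRex HEK293 cells stably expressing human MRGPRX2, in HBSS/20 mM HEPES/0.1% BSA/10 mM LiCl. Compounds (top final 30 uM, 1% DMSO) preincubated 30 min, then agonist stimulation 1 h at 37° C without wash. IP-1 accumulation read by HTRF; IC50 from 4-parameter fit.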

hERG channel = molecular target: T2, hERG channel (Homo sapiens, UniProt Q12809); assay: hERG Safety Evaluation by Manual Patch-Clamp System; conditions: hERG-T-Rex 293 cells, whole cell patch-clamp at 35° C.
T2 construct: host or cells: hERG-T-Rex 293 (HEK 293), doxycycline-induced
T2 sequence (Q12809 whole entry): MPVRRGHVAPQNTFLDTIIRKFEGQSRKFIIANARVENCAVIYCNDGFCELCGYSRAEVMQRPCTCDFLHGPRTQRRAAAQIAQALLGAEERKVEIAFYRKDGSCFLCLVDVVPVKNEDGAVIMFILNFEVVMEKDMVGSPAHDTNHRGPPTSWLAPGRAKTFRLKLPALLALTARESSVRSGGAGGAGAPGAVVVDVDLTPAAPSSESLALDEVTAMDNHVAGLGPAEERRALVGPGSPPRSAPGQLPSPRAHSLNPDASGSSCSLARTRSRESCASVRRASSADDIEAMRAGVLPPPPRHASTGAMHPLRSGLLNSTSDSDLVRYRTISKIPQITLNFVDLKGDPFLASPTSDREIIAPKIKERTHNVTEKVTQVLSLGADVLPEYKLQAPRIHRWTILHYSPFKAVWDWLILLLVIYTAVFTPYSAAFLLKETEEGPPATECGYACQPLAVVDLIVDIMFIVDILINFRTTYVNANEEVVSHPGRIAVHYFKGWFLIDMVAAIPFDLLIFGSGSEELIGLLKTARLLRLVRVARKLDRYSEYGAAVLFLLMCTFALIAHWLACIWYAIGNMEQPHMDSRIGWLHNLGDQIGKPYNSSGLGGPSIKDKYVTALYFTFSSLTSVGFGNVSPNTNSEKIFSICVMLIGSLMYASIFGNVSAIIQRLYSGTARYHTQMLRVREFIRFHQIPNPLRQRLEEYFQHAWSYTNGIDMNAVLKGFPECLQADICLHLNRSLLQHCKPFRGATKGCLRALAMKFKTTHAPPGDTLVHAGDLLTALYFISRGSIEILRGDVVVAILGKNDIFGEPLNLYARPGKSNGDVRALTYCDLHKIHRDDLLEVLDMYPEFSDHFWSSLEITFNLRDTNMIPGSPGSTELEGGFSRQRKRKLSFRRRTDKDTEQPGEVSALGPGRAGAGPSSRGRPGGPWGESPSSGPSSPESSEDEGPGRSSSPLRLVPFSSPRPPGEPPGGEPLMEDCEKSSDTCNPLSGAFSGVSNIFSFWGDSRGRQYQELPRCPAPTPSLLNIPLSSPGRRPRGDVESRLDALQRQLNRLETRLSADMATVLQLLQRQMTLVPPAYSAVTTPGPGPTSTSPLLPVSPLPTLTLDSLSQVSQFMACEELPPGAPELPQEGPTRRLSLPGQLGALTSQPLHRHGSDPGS
Method: A stable BIEK 293 cell line with inducible hERG channel expression (hERG-T-Rex 293, Invitrogen cat #K1236) was cultured in medium containing 85% DMVEM, 10% dialyzed FBS, 0.1 mM NEAA, 25 mM HEPES, 100 U/mL Penicillin-Streptomycin, 5 μg/mL Blasticidin and 400 μg/mL Geneticin. Before the assay, cells were induced with doxycycline at 1 μg/mL for 48 hours. On the experiment day, the induced cells were resuspended and plated onto coverslips at 5×10^5 cells/per 3.5 cm cell culture dish prior to use and cultured in medium without Blasticidin and Geneticin.
Electrophysiology recordings were performed in extracellular solution (ECS) containing (in mM): 132 NaCl, 4 KCl, 3 CaCl2), 0.5 MgCl2, 11.1 D-(+) glucose, and 10 HEPES (pH adjusted to 7.35 with NaOH, osmolarity 285-295 mOsm). Recording pipets contained (in mM) 10 NaCl, 10 KCl, 110 KF, 10 EGTA, and 10 HEPES (pH adjusted to 7.2 with KOH, osmolarity 285-295 mOsm).
Test and positive control (dofetilide) compounds were solubilized in 100% DMSO at 10 mM or 75 mM, respectively. Intermediate dilutions of compounds were prepared by serial dilution in 100% DMSO, after which working solutions were prepared in ECS (final DMSO concentration=0.1-1% v/v for test compounds, and 0.1% for dofetilide). […]
Whole cell recordings of voltage-clamped cells were performed at 35° C., with all working solutions heated to 34° C. in a water bath before administration. Current recordings were collected at 20 kHz with a 10 kHz filter and were compensated for capacitance. Cells were clamped at −60 mV, and leak current was tested at −80 mV for 500 ms. The hERG current was elicited by depolarizing at +30 mV for 4.8 seconds and then the voltage was taken back to −50 mV for 5.2 seconds to remove the inactivation and observe the deactivating tail current. Recordings were continued for 120 seconds to assess current stability. Only stable cells with recording parameters above threshold were used in compound administration experiments. Vehicle control was applied to cells to establish baseline. […] For dose response testing, test compound was applied to the cells cumulatively from low to high concentrations. Dofetilide at concentration of 450 nM was also applied to each cell post-hERG current measurement at the highest concentration of test compound as the internal low control for normalization of percentage inhibition. Dofetilide (5 doses) response was performed as positive hERG inhibition control for each batch of cells.
The following criteria were used to determine data acceptability: 1) Initial seal resistance>1 GΩ; 2) Leak currents<50% of the control peak tail currents at any time; 3) Normal test pulse current waveform (e.g., hERG peak tail) current amplitude greater than prepulse current amplitude and the peak tail amplitude>250 pA; 4) Membrane resistance Rm>500 MΩ; 5) Access resistance (Ra)<15 MΩ; 6) Apparent run-down of peak current<2.5% per min. Percent current inhibition was calculated as (1−(Peak tail currentcompound−Peak tail currentpositive control)/(Peak tail currentBlank vehicle−Peak tail currentpositive control))×100. PatchMaster software was used to extract the peak current from the original data. The dose response curve of test compounds was plotted with % inhibition against the concentration of test compounds using Graphpad Prism 8.0, and the data fit to a sigmoid dose-response curve with a variable slope.

LAD-2 cells [2] = assay: LAD2 Degranulation Assay (Protocol 2), β-hexosaminidase release; conditions: Homo sapiens; for IC50: 0.5 μM Cortistatin-14, 2 h preincubation, cells without SCF 18-24 hours, top concentration 3 μM; for activity at 0.25 µM: single point 250 nM, 0.5 μM Cortistatin-14, % control β-hexosaminidase activity
Method: as §1
18-24 hours prior to experiment, LAD-2 cells were collected and transferred to growth media without SCF. On the day of experiment, cells were collected by centrifugation and seeded in 384-well assay plates, at 4,000 cells per well in 17 μl freshly made assay buffer (10 mM HEPES, 137 mM NaCl, 2.7 mM KCl, 1.8 mM CaCl2), 1.0 mM MgCl2, 5.6 mM glucose, 0.4 mM NaH2PO4, 0.04% BSA, pH=7.40). For dose-response assays, compounds solubilized in 100% DMSO at 30 mM were serially diluted (1:3) first in 100% DMSO, and 2 intermediate dilutions with assay buffer were used to establish a final top concentration of 3 μM (in assay plate). For single point assays, dilution of DMSO stocks to 250 nM (in assay plate) was performed in the same manner as described for dose-response assays. Final DMSO concentration was kept constant at 0.1% across plates for all assays. Cortistatin-14 at 30 mM stock concentration was solubilized in HBSS+0.1% BSA, stored at −20° C. in 5 μl aliquots and discarded after one freeze-thaw cycle. Final concentration of agonist used in both dose-response and single point assays was 0.5 μM, prepared in assay buffer.
as §2, with “with 2 h” for “with 30 minute”, “[…])” for “15 μl)”, “(dose-response assays) or % control β-hexosaminidase activity (single point” for “(dose-response”

IC50 (LAD-2 cells [1])	IC50 (human MRGPRX2)	IC50 (LAD-2 cells [2])	Structure (SMILES)	hERG Inhibition (%) @ 1 μM (hERG channel)	hERG Inhibition (%) @ 20 μM (hERG channel)	activity at 0.25 µM (LAD-2 cells [2])
1940 nM	58 nM		C[C@@H](C(=O)Nc1cn(Cc2ccc(F)cc2F)cn1)N1CCC(F)(F)[C@@H](c2cc[n+]([O-])cc2)C1 (single isomer, unassigned) [Compound 1]	10%	35%	
	13 nM	9.5 nM	C[C@@H](C(=O)Nc1cn2c(n1)CC[C@@H]2c1cc(F)cc(F)c1)N1CCC(F)(F)[C@@H](c2cc[n+]([O-])cc2)C1 (single isomer, unassigned) [Compound 489]	12%	47%	14%
	20 nM	6.9 nM	C[C@@H](C(=O)Nc1cn2c(n1)CC[C@H]2c1cc(F)cc(F)c1)N1CCC(F)(F)[C@@H](c2ccc(=O)[nH]c2)C1 (single isomer, unassigned) [Compound 494]	9%	54%	13%
12 nM	3.7 nM		C[C@@H](C(=O)Nc1nc2cc3c(cc2s1)OCO3)N1CCC(F)(F)[C@@H](c2cc[n+]([O-])cc2)C1 (single isomer, unassigned) [Compound 11]	11%	62%	
14 nM	9 nM		C[C@H](C(=O)Nc1cn(Cc2cc(F)cc(F)c2)cn1)N1CCC(F)(F)[C@@H](c2cc[n+]([O-])cc2)C1 (single isomer, unassigned) [Compound 5]	3%	35%	
